What was measured:
HCT-116 cells [1] = assay: MTT cell viability assay, HCT-116; type: cell-based, human; conditions: 72 h; for cytotoxicity on tested cell lines: HCT-116, MCF-7, A-549, concentrations up to 50 µM; for IC50: MTT, IC50 ± SD
Procedure: (§1) To evaluate the effects of the newly synthesized tetrahydroquinolin-2(1H)-one derivatives on cell viability, we treated human colon cancer cells HCT-116, human breast cancer cells MCF-7, and human non-small cell lung cancer cells A-549 with different concentrations of the compounds for 72 h. After incubation, the MTT (3-(4,5-dimethylthiazol-2-yl)-2,5-diphenyltetrazolium bromide) assay was performed and the cytotoxic potency of compounds (expressed in IC50) on the cells was determined in comparison to control cells treated with 1% of dimethyl sulfoxide (DMSO) (Table 1). […] We also compared the activity of 20d and 19b to the reference control drug Cisplatin, which is widely used in chemotherapy.
(§2) A-549 (CCL-185) and MCF-7 ([…]) cells were cultured in RPMI-1640 medium, while HCT-116 (CVCL-427), (hMLH1)-deficient (MMR^–) and hMLH1-proficient (MMR^+) RKO cells were cultured in McCoy’s 5A medium. The culture media were supplemented with 10% fetal bovine serum, 2 mM L-glutamine, and antibiotics (penicillin 62.6 µg/ml and streptomycin 40 µg/ml). Cultivation of cell lines was carried out at 37 °C under a humidified atmosphere containing 5% CO2, and the cultures were routinely screened for Mycoplasma contamination. A-549, MCF-7, and HCT-116 cells were obtained from American Type Culture Collection (ATCC), while RKO colon carcinoma cells were a kind gift of Dr Timothy Kinsella (Brown University, USA).
(§3) The viability of cells was determined in response to the newly synthesized compounds using the MTT (Sigma-Aldrich) assay. Briefly, cells were seeded into 96-well plates and allowed to attach overnight. Then, cells were exposed to various concentrations of compounds for 24, 48 or 72 h. Negative controls were treated with the same amount of DMSO solvent (1%). After treatment, the MTT solution (0.4 mg/ml) was added to each well and allowed to react with cells for 2–3 h at 37 °C. Next, the medium was removed, the formazan product formed was dissolved in 100 μl of DMSO, and the absorbance was determined at 540 nm using an ASYS UVM340 microplate reader (Biochrom Ltd.). The IC50 value, which represents the concentration of the compound required to inhibit cell growth by 50% compared to vehicle, was calculated using GraphPad Prism 8 software based on the curves plotting survival against dose averaged from at least three independent experiments.

A-549 cells = assay: MTT cell viability assay, A-549; type: cell-based, human; conditions: for IC50: Homo sapiens, A549, MTT, 72 h, IC50 ± SD
Procedure: as §1, §2, §3

MCF-7 cells = assay: MTT cell viability assay, MCF-7; type: cell-based, human; conditions: Homo sapiens, MCF7, 72 h, IC50 ± SD
Procedure: as §1, §2, §3

HEK293 cells = assay: MTT cell viability assay, HEK293; type: cell-based, human; conditions: Homo sapiens, HEK293, IC50 ± SD
HCT-116 cells [2] = assay: Colony formation (clonogenic) assay; type: cell-based, human; conditions: HCT-116, 24 h pretreatment, 9 days culture
Procedure: A total of 500 HCT-116 cells/well was seeded into six-well plates. After attachment, cells were pretreated with DMSO (1%) or various concentrations of 20d and 19b for 24 h. Following incubation, the medium was changed, and cells were cultured for 9 days. After culturing, cells were washed with phosphate-buffered saline (PBS), fixed with 100% methanol for 30 min, and then stained with 0.5% crystal violet for 15 min. The plates were air-dried, and visible colonies were counted using ImageJ software. The percentage viability of cells was calculated in comparison to the control.

HCT-116 cells [3] = assay: Cell cycle distribution analysis by flow cytometry (PI staining); type: cell-based, human; conditions: HCT-116, 24 to 72 h, vs vehicle
Procedure: Based on their antiproliferative activity, 20d and 19b were evaluated for their effect on cell cycle phase distribution and DNA content by flow cytometry.
HCT-116 and A-549 cells were seeded into culture plates and allowed to attach overnight. Then, cells were incubated with the investigated compounds for the indicated time points. After incubation, the harvested cells were fixed with ice-cold 75% ethanol and stored overnight at − 20 °C. Next, cells were rehydrated with PBS in ice for 15 min and washed twice in PBS. Finally, cells were stained with […] propidium iodide (PI) and […] RNase A in PBS for 30 min at room temperature. Cell cycle distribution was determined using a Guava easyCyte 8 flow cytometer (Merck Millipore) and FlowJo v10 software.

Question: With `O=c1cc(-c2ccccc2)c2c([nH]1)C(O)CCC2` (stereo not drawn) [Compound 24, 8-hydroxy-4-phenyl-5,6,7,8-tetrahydro-1H-quinolin-2-one] as the compound, how does the “cytotoxicity on tested cell lines” value (HCT-116 cells [1]) read?
Answer: no cytotoxicity

Question: What about the IC50 (HCT-116 cells [1]; Homo sapiens, HCT-116, 72 h) of the same compound?
Answer: > 50 µM

Question: What about the IC50 (A-549 cells) of the same compound?
Answer: > 50 µM

Question: What about the IC50 (MCF-7 cells) of the same compound?
Answer: > 50 µM

Question: What about the IC50 (HEK293 cells) of the same compound?
Answer: > 50 µM

Question: And the melting point?
Answer: 104 to 106 °C

Question: Which results are given for `COc1cc(-c2ccccc2)c2c(n1)C(O)CCC2` (stereo not drawn) [Compound 17, 2-methoxy-4-phenyl-5,6,7,8-tetrahydroquinolin-8-ol]?
Answer: cytotoxicity on tested cell lines (HCT-116 cells [1]): no cytotoxicity; IC50 (HCT-116 cells [1]; Homo sapiens, HCT-116, 72 h): > 50 µM; IC50 (A-549 cells): > 50 µM; IC50 (MCF-7 cells): > 50 µM; IC50 (HEK293 cells): > 50 µM; melting point: 61 to 63 °C

Question: Which IC50 (HCT-116 cells [1]; Homo sapiens, HCT-116, 72 h) does the source give for `O=C(Nc1ccccc1)OC1CCCc2c(-c3ccccc3)cc(=O)[nH]c21` (stereo not drawn) [Compound 20a, (2-oxo-4-phenyl-5,6,7,8-tetrahydroquinolin-8-yl) N-phenylcarbamate] here?
Answer: ~13 µM

Question: What about the IC50 (HCT-116 cells [1]) of the same compound?
Answer: 13.1 ± 1.55 µM

Question: What about the IC50 (A-549 cells) of the same compound?
Answer: 21.8 ± 0.22 µM

Question: What about the IC50 (MCF-7 cells) of the same compound?
Answer: > 50 µM

Question: What about the IC50 (HEK293 cells) of the same compound?
Answer: > 50 µM

Question: And the melting point?
Answer: 144 to 146 °C

Question: For `O=C(Nc1ccccc1)OC1CCCc2c(-c3ccccc3)cc(Cl)nc21` (stereo not drawn) [Compound 18a, (2-chloro-4-phenyl-5,6,7,8-tetrahydroquinolin-8-yl) N-phenylcarbamate], which IC50 (HCT-116 cells [1]; Homo sapiens, HCT-116, 72 h) is on record?
Answer: 39.8 ± 2.62 µM

Question: And the IC50 (A-549 cells)?
Answer: 27.2 ± 1.53 µM

Question: What about the IC50 (MCF-7 cells) of the same compound?
Answer: > 50 µM

Question: What about the IC50 (HEK293 cells) of the same compound?
Answer: > 50 µM

Question: And the melting point?
Answer: 148 to 150 °C

Question: Which results are given for `COc1cc(-c2ccccc2)c2c(n1)C(OC(=O)Nc1ccc(Cl)cc1)CCC2` (stereo not drawn) [Compound 19e, (2-methoxy-4-phenyl-5,6,7,8-tetrahydroquinolin-8-yl) N-(4-chlorophenyl)carbamate]?
Answer: IC50 (HCT-116 cells [1]; Homo sapiens, HCT-116, 72 h): ~13 µM; IC50 (HCT-116 cells [1]): 13.9 ± 1.3 µM; IC50 (A-549 cells): > 50 µM; IC50 (MCF-7 cells): > 50 µM; IC50 (HEK293 cells): > 50 µM; melting point: 144 to 146 °C

Question: For `COc1cc(-c2ccccc2)c2c(n1)C(OC(=O)Nc1ccc([N+](=O)[O-])cc1)CCC2` (stereo not drawn) [Compound 19b, (2-methoxy-4-phenyl-5,6,7,8-tetrahydroquinolin-8-yl) N-(4-nitrophenyl)carbamate], which IC50 (HCT-116 cells [1]; Homo sapiens, HCT-116, 72 h) is on record?
Answer: ~13 µM

Question: What about the IC50 (HCT-116 cells [1]) of the same compound?
Answer: 13.5 ± 0.2 µM

Question: What about the “fold lower concentration than Cisplatin suppressing 50% of cell viability” value (A-549 cells; A-549) of the same compound?
Answer: 5 fold

Question: What about the IC50 (A-549 cells) of the same compound?
Answer: 15.7 ± 2.56 µM

Question: What about the IC50 (MCF-7 cells) of the same compound?
Answer: > 50 µM

Question: And the IC50 (HEK293 cells)?
Answer: > 50 µM

Question: And the formation of colonies (HCT-116 cells [2])?
Answer: effectively inhibited the formation of colonies in a concentration-dependent manner

Question: What about the “increase in the number of cells in the G0/G1 phase” value (HCT-116 cells [3]) of the same compound?
Answer: < 14%

Question: What about the “number of cells in the S-phase” value (HCT-116 cells [3]) of the same compound?
Answer: substantial decrease

Question: And the melting point?
Answer: 183 to 185 °C

Question: What does the source list for `COc1cc(-c2ccccc2)c2c(n1)C(OC(=O)Nc1ccc(F)cc1)CCC2` (stereo not drawn) [Compound 19c, (2-methoxy-4-phenyl-5,6,7,8-tetrahydroquinolin-8-yl) N-(4-fluorophenyl)carbamate]?
Answer: IC50 (HCT-116 cells [1]; Homo sapiens, HCT-116, 72 h): ~13 µM; IC50 (HCT-116 cells [1]): 13 ± 2.68 µM; IC50 (A-549 cells): 28.4 ± 0.56 µM; IC50 (MCF-7 cells): > 50 µM; IC50 (HEK293 cells): > 50 µM; melting point: 125 to 127 °C

Question: Which “cytotoxicity on tested cell lines” value (HCT-116 cells [1]) does the source give for `O=C1CCCc2c(-c3ccccc3)cc(Cl)nc21` [Compound 21, 2-chloro-4-phenyl-6,7-dihydro-5H-quinolin-8-one] here?
Answer: no cytotoxicity

Question: And the IC50 (HCT-116 cells [1]; Homo sapiens, HCT-116, 72 h)?
Answer: > 50 µM

Question: And the IC50 (A-549 cells)?
Answer: > 50 µM

Question: And the IC50 (MCF-7 cells)?
Answer: > 50 µM

Question: What about the IC50 (HEK293 cells) of the same compound?
Answer: > 50 µM

Question: And the melting point?
Answer: 135 to 137 °C

Question: What does the source list for `COc1cc(-c2ccccc2)c2c(n1)C(=O)CCC2` [Compound 22, 2-methoxy-4-phenyl-6,7-dihydro-5H-quinolin-8-one]?
Answer: cytotoxicity on tested cell lines (HCT-116 cells [1]): no cytotoxicity; IC50 (HCT-116 cells [1]; Homo sapiens, HCT-116, 72 h): > 50 µM; IC50 (A-549 cells): > 50 µM; IC50 (MCF-7 cells): > 50 µM; IC50 (HEK293 cells): > 50 µM; melting point: 127 to 129 °C

Question: With `O=C1CCCc2c(-c3ccccc3)cc(=O)[nH]c21` [Compound 23, 4-phenyl-1,5,6,7-tetrahydroquinoline-2,8-dione] as the compound, how does the “cytotoxicity on tested cell lines” value (HCT-116 cells [1]) read?
Answer: no cytotoxicity

Question: And the IC50 (HCT-116 cells [1]; Homo sapiens, HCT-116, 72 h)?
Answer: > 50 µM

Question: What about the IC50 (A-549 cells) of the same compound?
Answer: > 50 µM

Question: And the IC50 (MCF-7 cells)?
Answer: > 50 µM

Question: What about the IC50 (HEK293 cells) of the same compound?
Answer: > 50 µM

Question: And the melting point?
Answer: 182 to 184 °C
